# Data reported in ChEMBL document CHEMBL1201862, “PubChem BioAssay data set” (2004).
#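 96-well plates; 48 h exposure; 5 concentrations. Endpoints by linear interpolation between flanking doses. Not reached: highest tested concentration assigned. GI50 marks 50% less growth.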 Active and inactive are the calls of the source. Rule as the data show it: active = GI50 up to about 1.1 µM and inactive = higher.
# Experiments:
# Assay in all cases: NCI-60 cell line screen, 48 h
# A549 = tested on: A549
# ACHN = tested on: ACHN
# CCRF-CEM = tested on: CCRF-CEM
# HCC 2998 = tested on: HCC 2998
# HOP-62 = tested on: HOP-62
# HOP-92 = tested on: HOP-92
# MCF7 = tested on: MCF7
# NCI-H522 = tested on: NCI-H522
# NCI/ADR-RES = tested on: NCI/ADR-RES
# OVCAR-4 = tested on: OVCAR-4
# OVCAR-5 = tested on: OVCAR-5
# OVCAR-8 = tested on: OVCAR-8
# SF-295 = tested on: SF-295
# SK-MEL-5 = tested on: SK-MEL-5
# SNB-75 = tested on: SNB-75
# SR = tested on: SR
# T47D = tested on: T47D
# TK-10 = tested on: TK-10
# UO-31 = tested on: UO-31
# DMS-273 = tested on: DMS-273
SMILES,GI50 (A549),GI50 (ACHN),GI50 (CCRF-CEM),GI50 (HCC 2998),GI50 (HOP-62),GI50 (HOP-92),GI50 (MCF7),GI50 (NCI-H522),GI50 (NCI/ADR-RES),GI50 (OVCAR-4),GI50 (OVCAR-5),GI50 (OVCAR-8),GI50 (SF-295),GI50 (SK-MEL-5),GI50 (SNB-75),GI50 (SR),GI50 (T47D),GI50 (TK-10),GI50 (UO-31),GI50 (DMS-273)
Cn1c(=O)oc2cc(C(=O)CSC(=S)N3CCCCCC3)ccc21,> 100 µM (inactive),> 100 µM (inactive),75.5 µM (inactive),78.7 µM (inactive),61.1 µM (inactive),> 100 µM (inactive),> 100 µM (inactive),> 100 µM (inactive),54.2 µM (inactive),> 100 µM (inactive),> 100 µM (inactive),> 100 µM (inactive),87.9 µM (inactive),> 100 µM (inactive),> 100 µM (inactive),56.2 µM (inactive),86.7 µM (inactive),> 100 µM (inactive),> 100 µM (inactive),–
COc1ccc(C[C@H]2NC[C@H](O)[C@H]2OC(C)=O)cc1 [ANISOMYCIN],0.0232 µM (active),< 0.0144 µM (active),< 0.0122 µM (active),0.0229 µM (active),< 0.021 µM (active),0.016 µM (active),0.0193 µM (active),< 0.0198 µM (active),0.0282 µM (active),0.0194 µM (active),0.0478 µM (active),< 0.0168 µM (active),< 0.0184 µM (active),0.0133 µM (active),< 0.0106 µM (active),< 0.0143 µM (active),0.0303 µM (active),0.0479 µM (active),0.0404 µM (active),–
CC1(C)CN=C(Nc2ccc(Cl)cc2)S1,> 100 µM (inactive),> 100 µM (inactive),74.3 µM (inactive),> 100 µM (inactive),> 100 µM (inactive),29.5 µM (inactive),> 100 µM (inactive),> 100 µM (inactive),76.6 µM (inactive),72.3 µM (inactive),> 100 µM (inactive),> 100 µM (inactive),> 100 µM (inactive),62.7 µM (inactive),70.8 µM (inactive),65.6 µM (inactive),42.9 µM (inactive),65.8 µM (inactive),37.2 µM (inactive),–
Cc1cc(C)cc(NC(=O)CCC(=O)C2CCC/C2=N\NC(=O)C(=O)NN)c1 (stereo not drawn),> 100 µM (inactive),> 100 µM (inactive),> 100 µM (inactive),> 100 µM (inactive),–,–,–,–,–,> 100 µM (inactive),> 100 µM (inactive),> 100 µM (inactive),> 100 µM (inactive),> 100 µM (inactive),> 100 µM (inactive),–,–,> 100 µM (inactive),> 100 µM (inactive),> 100 µM (inactive)
CC(=O)[C@]1(C)[C@H](C)O[C@](C)(CO)[C@H]1O[Si](C)(C)c1ccccc1,56.6 µM (inactive),46.7 µM (inactive),28.4 µM (inactive),31.5 µM (inactive),> 100 µM (inactive),11.2 µM (inactive),31.8 µM (inactive),23.2 µM (inactive),37.3 µM (inactive),30.4 µM (inactive),> 100 µM (inactive),48 µM (inactive),53 µM (inactive),33.9 µM (inactive),> 100 µM (inactive),31.8 µM (inactive),17.8 µM (inactive),82.4 µM (inactive),28.8 µM (inactive),–
c1cc(CSc2ncnc3[nH]cnc23)ccn1,> 100 µM (inactive),> 100 µM (inactive),66.8 µM (inactive),92.5 µM (inactive),91.8 µM (inactive),> 100 µM (inactive),83.4 µM (inactive),42.2 µM (inactive),> 100 µM (inactive),> 100 µM (inactive),> 100 µM (inactive),94 µM (inactive),> 100 µM (inactive),> 100 µM (inactive),> 100 µM (inactive),34.4 µM (inactive),76.6 µM (inactive),59.8 µM (inactive),57.8 µM (inactive),–
